Experimental findings from patent US7638554B2, “Flavanoids as chemotherapeutic, chemopreventive, and antiangiogenic agents” (SRI International, priority 2002, dated 2009) are described below.

Assay [1] concerns chick chorioallantoic membrane (CAM) blood vessels. The experiment in a line: Chick chorioallantoic membrane (CAM) assay for antiangiogenic activity. Type of assay: in vivo. The procedure:
The CAM assay, which is widely applied to evaluate in vivo antiangiogenic activity, was utilized with SR 13179.
The methods used were those of Folkman (Auerbach et al. (1974) Dev. Biol. 41:391-394), with some modifications. The test compound was dissolved in saline and methylcellulose, and the embryos dosed once daily for 12-14 days. Blood vessel density of each embryo was measured as the quantitative endpoint. The known antiangiogenic compound medroxyprogesterone acetate (MPA) was used as a positive control.

The subject of assay [2] is human TIMP-2 mRNA. Put plainly: Northern blot analysis of TIMP-2 mRNA, MCF10CA1a cells. Type of assay: cell-based. Particulars: 0.5, 1, 3, or 5 μM. The procedure:
Northern blotting. Ten μg of total RNA was electrophoresed in 1% agarose gel containing 6% formaldehyde, transferred to nylon membrane (Amersham Hybond N) by capillary blotting and fixed to the filter by exposure to UV. The blot was probed with a 600 bp ^32P-labeled cDNA sequence of human TIMP-2. Hybridizations were carried out at 42° C. in 50% formamide, 5×SSC, 5×Denhardt's solution, 0.1% SDS, and 0.3 mg/ml salmon sperm DNA. Filters were exposed to X-ray film (Kodak XAR-2) at −80° C. using an intensifying screen (Coronex Hi-Plus).
The effect of SR13179 on the extracellular levels of TIMP-2 as well as MMP-2 was also investigated. Treatment of MCF-10CA1a cells with SR13179 at 5 μM concentration caused 5- to 8-fold increase in the secreted level of TIMP-2 and a 2-fold decrease in the extracellular level of MMP-2. However, extracellular TIMP-2 protein was always associated with MMP-2 protein, even after the samples were boiled for 10 min and separated under the denaturing conditions of gel electrophoresis.

Assay [3] has as its system colon cancer cell line HCT-15. The experiment in a line: Growth inhibition, sulforhodamine-based protein determination, HCT-15. Particulars: Homo sapiens, HCT-15, 144 h; continuous exposure six days. Type of assay: cell-based. The protocol:
The novel compound SR 13179 was assayed for its ability to inhibit growth in several cancer cell lines. The cell lines studied included breast cancer cell line MCF-7 (ER+); prostate cancer cell lines LNCaP, PC3, and DU145; lung cancer cell line A427; ovarian cancer cell lines IGROV1, OVCAR-3, OVCAR-4, OVCAR-5, OVCAR-8, and SK-OV-3; and colon cancer cell lines COLO 205, HCC-2998, HCT-116, HCT-15, HT29, KM12, AND SW-620.
The growth assays for the breast cancer cell lines were conducted according to the method of Example 16. For the other cell lines, each assay was conducted with continuous exposure to the test compound at four log concentrations for six days, using a sulforhodamine-based protein determination to measure growth inhibition.

Assay [4] relates to MCF-7 (ER+) breast cancer cell line. The experiment in a line: Growth inhibition assay, MTT, MCF-7 breast cancer cells. Type of assay: cell-based, human. Particulars: Homo sapiens. The procedure: Compounds of the invention were tested for their ability to inhibit growth in two breast cancer cell lines, MCF-7 (ER+) and MDA-MB-231 (ER−).
The growth inhibition assays were conducted using routine methods. Briefly, the cells were seeded in 24-well plates at a density of 2000 cells per well in 200 μL of […] growth medium. To each well was added 10 μL of DMSO containing the dissolved test compound; final DMSO concentration in each well was not more than 0.5%. Each test compound was assayed at concentrations of 0.4, 2, 10, and 50 μM. The plates were incubated for eight days, with the media and test solutions replaced every third day. On Day 8, the viable cells were measured by the MTT assay, as described in Mosmann et al. (1983), “Rapid Colorimetric Assay for Cellular Growth and Survival: Application to Proliferation and Cytotoxicity,” J. Immunol. Method. 65:55-63. The optical density at 575 nm of each test well was measured and compared to that for control wells, and the data used to calculate the percentage of growth inhibition at different concentrations. The IC50 value (the concentration of growth inhibitor that results in 50% growth inhibition of the cells in culture relative to control cells not exposed to any growth inhibitor) was determined by plotting dose-response curves.
The calculated IC50 values are set forth in Table 1, with the results representing the average of at least two experiments conducted for each compound at each of the four concentrations.

Assay [5] has as its target T1, p38 MAPK (Homo sapiens, UniProt Q16539).
T1 construct: endogenous in cells; host or cells: MCF-7 human breast cancer cells
Put plainly: Inhibition of p38 MAPK in MCF-7 cells. Particulars: MCF-7 human breast cancer cell line. Type of assay: cell-based.

The test system of assay [6] is LNCaP human prostate cancer cells. Put plainly: Cell cycle arrest in LNCaP cells (Hoechst 33258 nuclear morphology, flow cytometry). Type of assay: cell-based. The protocol:
To determine whether SR 13179 exerts its antiproliferative activity by perturbing the cell cycle, the nuclear morphology of LNCaP cells was visualized after treatment with SR 13179. The cells were exposed to the compound for 28 h at concentrations of either 0.5 μM or 1 μM and then stained with the nuclear dye Hoechst 33258.
To investigate the mitotic arrest in more detail, flow cytometry was used to study the effect of SR 13179 on cell cycle progression for LNCaP cells.

Setting [7] is: 11.1 μg/CAM, once daily for 12-14 days.

Where two headings read alike, the source gives them in different places.

For orientation: IC50 means the concentration at which inhibition is half-maximal.

T1 sequence (Q16539 whole entry): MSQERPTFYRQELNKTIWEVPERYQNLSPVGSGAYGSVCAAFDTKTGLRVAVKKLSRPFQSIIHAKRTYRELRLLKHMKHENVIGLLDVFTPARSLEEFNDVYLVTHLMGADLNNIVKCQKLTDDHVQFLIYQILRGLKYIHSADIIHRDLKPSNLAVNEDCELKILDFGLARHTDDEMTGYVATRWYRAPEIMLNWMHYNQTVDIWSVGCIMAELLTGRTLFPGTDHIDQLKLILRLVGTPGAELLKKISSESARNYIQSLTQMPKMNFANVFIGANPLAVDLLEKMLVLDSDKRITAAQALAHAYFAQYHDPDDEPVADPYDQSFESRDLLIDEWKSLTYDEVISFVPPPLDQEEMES

With `COc1cc(C2CC(O)c3ccc4ccccc4c3O2)cc(OC)c1OC` (stereo not shown) [SR 13179, 2-(3,4,5-trimethoxyphenyl)-3,4-dihydro-2H-benzo[h]chromen-4-ol], in assay [1] (setting [7]), the “Blood vessel density score” value was 4.6 ± 2.2. For the same compound, the “Percent inhibition relative to control” value in assay [1] (setting [7]) is recorded as 57%. Also, the “in vivo antiangiogenic activity compared with MPA” value in assay [1] (CAM assay) is recorded as “equivalent to that of MPA”. Further, the “TIMP-2 mRNA” value in assay [2] is given as “dose-dependent induction”. For the same compound, the IC50 turned out to be 270 nM in assay [3]; 1410 nM in assay [4] (MCF7, 192 h, MTT assay, eight days, average of at least two experiments, read-out: GROWTH INHIBITION (IC50) MCF-7 (ER+)); 1140 nM in assay [4] (MCF7, Table 2, method of Example 16, read-out: IC50, growth inhibition, MCF-7 (ER+)). Moreover, in assay [5], the “p38 MAPK” value is recorded as “inhibited”. Further, in assay [6] (0.5 μM or 1 μM, 28 h), the “nuclear morphology (Hoechst 33258)” value is “chromatin condensation characteristic of a prometaphase arrest”. The “G2/M fraction compared with the control” value in assay [6] (2 μM and greater, 24 h, flow cytometry) is listed as “two-fold increase”.
